# Test results from article PMC4742234, “Screening of Drug Metabolizing Enzymes for the Ginsenoside Compound K In Vitro: An Efficient Anti-Cancer Substance Originating from Panax Ginseng” (PLoS ONE, 2016).
# Where “and” joins values, the source holds several entries; their conditions need not be identical. Equal entries are not always repeated.
# Target: CYP2C9 (Homo sapiens, UniProt P11712)
# Assay: Kinetic analysis of CK metabolism by recombinant CYP2C9
# Type: in vitro ADME
# Parameters: purchased Cypex Ltd. (U.K.)
# Settings: recombinant CYP2C9 10 pmol, CK 10–100 μM
# Method: The method was conducted according to our previous study with some modifications. The CYP isoform-specific probe reactions used were phenacetin O-deethylation (for CYP1A2), coumarin 7-hydroxylation (for CYP2A6), tolbutamide 4-hydroxylation (for CYP2C9), metoprolol α-hydroxylation (for CYP2D6), chlorzoxazone 6-hydroxylation (for CYP2E1),S-Mephenytoin 4-hydroxylation (for CYP2C19), and midazolam 1-hydroxylation (for CYP3A4). The kinetic study of CK was conducted with HLMs. A 0.2 mL incubation mixture that consisted of CK (as a substrate), the HLMs (0.5 mg/mL) or CYP isoforms (10 pmol), and 0.1 M sodium phosphate buffer (pH 7.4) was pre-warmed for 5 min at 37°C. The reaction was initiated by the addition of 1 mg/mL triphosphopyridine nucleotide (NADPH). […]
# The kinetic parameters for the metabolism of CK were determined by incubating increasing concentrations of CK (10–100 μM) at 37°C with the HLMs and NADPH under the incubation conditions as described in detail previously. The equation of CK reaction velocity (V) in the HLMs or CYP isoforms is expressed as V = (C0–Ct)/T/Cp, where C0and Ct are the initial and final concentrations of CK in the incubation solution, respectively, T is the incubation time (min), and Cp is the protein concentration (mg/mL or nmol). All values were expressed as the mean±standard deviation (SD). […]
# Chain of CYP2C9 (P11712 whole entry): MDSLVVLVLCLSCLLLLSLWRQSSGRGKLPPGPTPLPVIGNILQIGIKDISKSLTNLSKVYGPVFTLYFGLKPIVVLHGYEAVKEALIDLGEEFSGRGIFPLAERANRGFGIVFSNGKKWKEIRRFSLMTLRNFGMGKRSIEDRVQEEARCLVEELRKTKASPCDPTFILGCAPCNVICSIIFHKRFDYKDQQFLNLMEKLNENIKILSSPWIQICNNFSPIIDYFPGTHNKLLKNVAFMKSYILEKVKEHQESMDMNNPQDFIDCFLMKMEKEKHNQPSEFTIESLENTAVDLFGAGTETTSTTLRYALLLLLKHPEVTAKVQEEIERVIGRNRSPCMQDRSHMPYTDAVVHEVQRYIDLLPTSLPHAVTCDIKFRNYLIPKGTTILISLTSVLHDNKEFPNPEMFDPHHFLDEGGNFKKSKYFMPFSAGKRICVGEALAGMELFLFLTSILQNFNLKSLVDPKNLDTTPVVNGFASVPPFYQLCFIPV
structure (smiles),measurement,value
"CC(C)=CCC[C@](C)(OC1O[C@H](CO)[C@@H](O)[C@H](O)[C@H]1O)[C@H]1CC[C@]2(C)[C@@H]1[C@H](O)C[C@@H]1[C@@]3(C)CC[C@H](O)C(C)(C)[C@@H]3CC[C@]12C (stereo partly drawn) [CK, 20-O-β-(D-glucopyranosyl)-20(S)-protopanaxadiol]",Vmax of CK metabolism,0.45±0.05 nmol/nmol P450/min and 0.4537 nmol/nmol P450/min
